Data as given in ChEMBL document CHEMBL5154787 (J Med Chem, 2022).

How the values were obtained:
[1] = Efflux ratio of permeability in human Caco-2 cells; type: ADME, cell-based
[2] = Metabolic stability in human liver microsomes assessed as parent compound remaining at 0.5 uM incubated for 10 mins in presence of NADPH by LC-MS/MS analysis; type: ADME, Microsome; conditions: read-out: Stability
[3] = Metabolic stability in rat liver microsomes assessed as parent compound remaining at 0.5 uM incubated for 10 mins in presence of NADPH by LC-MS/MS analysis; type: ADME, Microsome; conditions: read-out: Stability
[4] = Metabolic stability in mouse liver microsomes assessed as parent compound remaining at 0.5 uM incubated for 10 mins in presence of NADPH by LC-MS/MS analysis; type: ADME, Microsome; conditions: liver microsomes, read-out: Stability
[5] = biological target: Cytochrome P450 3A4 (Homo sapiens, UniProt P08684); experiment: Inhibition of CYP3A4 (unknown origin) incubated for 10 mins in presence of NADPH by LC-MS/MS analysis; type: ADME
Cytochrome P450 3A4, sequence (P08684 whole entry): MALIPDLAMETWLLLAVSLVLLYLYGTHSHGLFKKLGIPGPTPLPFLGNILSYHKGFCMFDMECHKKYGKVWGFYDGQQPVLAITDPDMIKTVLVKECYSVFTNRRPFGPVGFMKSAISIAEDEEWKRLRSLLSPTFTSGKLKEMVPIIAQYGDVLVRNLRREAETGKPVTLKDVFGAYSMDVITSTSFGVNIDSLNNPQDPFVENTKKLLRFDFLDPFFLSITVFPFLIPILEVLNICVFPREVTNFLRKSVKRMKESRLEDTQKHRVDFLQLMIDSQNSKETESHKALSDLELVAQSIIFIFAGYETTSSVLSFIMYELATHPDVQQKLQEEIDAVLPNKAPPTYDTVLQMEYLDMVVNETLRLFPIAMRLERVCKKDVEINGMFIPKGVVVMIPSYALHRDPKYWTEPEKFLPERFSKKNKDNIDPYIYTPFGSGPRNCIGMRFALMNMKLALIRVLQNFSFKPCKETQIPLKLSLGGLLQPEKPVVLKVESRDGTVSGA

[6] = biological target: AP2-associated protein kinase 1 (Mus musculus, UniProt Q3UHJ0); experiment: Displacement of 3H-LP-927443 from AAK1 in C57BL6 mouse brain homogenate assessed as inhibition constant incubated for 1 hr by liquid scintillation counter analysis; type: tissue-based
AP2-associated protein kinase 1 (Mus musculus, UniProt Q3UHJ0), sequence (Q3UHJ0 whole entry): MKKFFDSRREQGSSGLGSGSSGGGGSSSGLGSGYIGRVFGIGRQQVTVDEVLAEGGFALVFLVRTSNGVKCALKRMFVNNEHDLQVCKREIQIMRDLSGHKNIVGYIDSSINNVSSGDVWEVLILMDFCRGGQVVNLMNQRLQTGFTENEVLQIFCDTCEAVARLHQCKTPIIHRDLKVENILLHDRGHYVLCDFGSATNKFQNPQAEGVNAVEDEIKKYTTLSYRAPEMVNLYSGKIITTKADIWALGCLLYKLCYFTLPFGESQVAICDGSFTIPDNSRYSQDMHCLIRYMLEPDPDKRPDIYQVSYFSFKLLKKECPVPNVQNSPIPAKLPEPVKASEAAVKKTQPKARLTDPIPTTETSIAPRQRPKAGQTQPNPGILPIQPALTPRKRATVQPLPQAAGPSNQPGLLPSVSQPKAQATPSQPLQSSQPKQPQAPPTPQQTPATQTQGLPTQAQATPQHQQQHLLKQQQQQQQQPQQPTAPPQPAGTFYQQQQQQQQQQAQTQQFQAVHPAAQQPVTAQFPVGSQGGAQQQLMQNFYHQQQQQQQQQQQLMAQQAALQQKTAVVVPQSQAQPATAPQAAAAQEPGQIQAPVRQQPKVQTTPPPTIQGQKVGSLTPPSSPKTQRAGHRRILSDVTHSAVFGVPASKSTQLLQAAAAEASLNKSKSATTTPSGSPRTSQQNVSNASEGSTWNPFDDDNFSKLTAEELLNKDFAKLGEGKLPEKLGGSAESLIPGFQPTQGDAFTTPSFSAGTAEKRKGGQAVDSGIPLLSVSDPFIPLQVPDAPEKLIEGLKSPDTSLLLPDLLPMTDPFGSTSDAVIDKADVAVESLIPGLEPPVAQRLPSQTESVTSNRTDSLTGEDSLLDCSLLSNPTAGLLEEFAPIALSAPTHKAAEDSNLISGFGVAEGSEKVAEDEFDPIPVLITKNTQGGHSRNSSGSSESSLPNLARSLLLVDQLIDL

[7] = biological target: T1, AP2-associated protein kinase 1 (Homo sapiens, UniProt Q2M2I8); experiment: Inhibition of full length human AAK1 expressed in HEK293F cells assessed as suppression of AP2 phosphorylation measured after 3 hrs by Western blot analysis based cellular assay; type: cell-based
T1 sequence (Q2M2I8 whole entry): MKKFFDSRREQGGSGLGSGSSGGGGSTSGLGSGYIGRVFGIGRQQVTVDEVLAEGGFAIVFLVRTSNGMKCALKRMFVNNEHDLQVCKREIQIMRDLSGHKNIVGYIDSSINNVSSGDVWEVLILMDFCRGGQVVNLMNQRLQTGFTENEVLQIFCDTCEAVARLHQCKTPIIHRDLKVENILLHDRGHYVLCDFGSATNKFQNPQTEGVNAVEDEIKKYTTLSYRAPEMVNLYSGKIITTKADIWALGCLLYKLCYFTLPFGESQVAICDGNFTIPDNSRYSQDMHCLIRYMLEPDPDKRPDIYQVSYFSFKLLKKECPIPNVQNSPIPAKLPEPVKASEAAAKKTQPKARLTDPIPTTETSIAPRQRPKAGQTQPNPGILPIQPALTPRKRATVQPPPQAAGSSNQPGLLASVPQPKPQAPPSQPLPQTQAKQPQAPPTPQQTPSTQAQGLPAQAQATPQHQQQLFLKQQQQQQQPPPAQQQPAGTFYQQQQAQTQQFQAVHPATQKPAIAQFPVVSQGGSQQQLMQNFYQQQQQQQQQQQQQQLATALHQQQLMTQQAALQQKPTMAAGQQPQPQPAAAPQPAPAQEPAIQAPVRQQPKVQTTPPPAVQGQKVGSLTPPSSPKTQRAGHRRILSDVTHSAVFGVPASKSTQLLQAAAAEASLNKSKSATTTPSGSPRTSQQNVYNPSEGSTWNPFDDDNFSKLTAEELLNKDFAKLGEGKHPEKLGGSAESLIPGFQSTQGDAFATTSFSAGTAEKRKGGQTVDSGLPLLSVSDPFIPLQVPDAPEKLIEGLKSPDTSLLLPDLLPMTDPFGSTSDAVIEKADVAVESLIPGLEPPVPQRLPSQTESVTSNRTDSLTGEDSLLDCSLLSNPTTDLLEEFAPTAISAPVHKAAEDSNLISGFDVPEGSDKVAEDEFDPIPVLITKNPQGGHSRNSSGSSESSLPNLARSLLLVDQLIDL

[8] = Ratio of drug concentration in brain to plasma in Sprague-Dawley rat at 3 mg/kg, po measured at 2 hrs post dose; type: ADME, organism-based
[9] = biological target: T1, AP2-associated protein kinase 1; experiment: Inhibition of bacterially expressed GST-Xa-tagged human AAK1 using 5-FAM-labelled Aha-KEEQSQITSQVTGQIGWR-NH2 peptide as substrate incubated for 3 hrs in presence of ATP by electrophoretic analysis
[10] = Cardiotoxicity in aortic ring (unknown origin) assessed as relaxation of phenylephrine induced aortic ring contraction at 10 uM incubated for 1 hr; type: toxicity, tissue-based, Aorta; parameters: scale not given: the % may be the effect or the level left; conditions: human
[11] = biological target: T2, Cyclin-G-associated kinase (Homo sapiens, UniProt O14976); experiment: Inhibition of GAK (unknown origin)
T2 sequence (O14976 whole entry): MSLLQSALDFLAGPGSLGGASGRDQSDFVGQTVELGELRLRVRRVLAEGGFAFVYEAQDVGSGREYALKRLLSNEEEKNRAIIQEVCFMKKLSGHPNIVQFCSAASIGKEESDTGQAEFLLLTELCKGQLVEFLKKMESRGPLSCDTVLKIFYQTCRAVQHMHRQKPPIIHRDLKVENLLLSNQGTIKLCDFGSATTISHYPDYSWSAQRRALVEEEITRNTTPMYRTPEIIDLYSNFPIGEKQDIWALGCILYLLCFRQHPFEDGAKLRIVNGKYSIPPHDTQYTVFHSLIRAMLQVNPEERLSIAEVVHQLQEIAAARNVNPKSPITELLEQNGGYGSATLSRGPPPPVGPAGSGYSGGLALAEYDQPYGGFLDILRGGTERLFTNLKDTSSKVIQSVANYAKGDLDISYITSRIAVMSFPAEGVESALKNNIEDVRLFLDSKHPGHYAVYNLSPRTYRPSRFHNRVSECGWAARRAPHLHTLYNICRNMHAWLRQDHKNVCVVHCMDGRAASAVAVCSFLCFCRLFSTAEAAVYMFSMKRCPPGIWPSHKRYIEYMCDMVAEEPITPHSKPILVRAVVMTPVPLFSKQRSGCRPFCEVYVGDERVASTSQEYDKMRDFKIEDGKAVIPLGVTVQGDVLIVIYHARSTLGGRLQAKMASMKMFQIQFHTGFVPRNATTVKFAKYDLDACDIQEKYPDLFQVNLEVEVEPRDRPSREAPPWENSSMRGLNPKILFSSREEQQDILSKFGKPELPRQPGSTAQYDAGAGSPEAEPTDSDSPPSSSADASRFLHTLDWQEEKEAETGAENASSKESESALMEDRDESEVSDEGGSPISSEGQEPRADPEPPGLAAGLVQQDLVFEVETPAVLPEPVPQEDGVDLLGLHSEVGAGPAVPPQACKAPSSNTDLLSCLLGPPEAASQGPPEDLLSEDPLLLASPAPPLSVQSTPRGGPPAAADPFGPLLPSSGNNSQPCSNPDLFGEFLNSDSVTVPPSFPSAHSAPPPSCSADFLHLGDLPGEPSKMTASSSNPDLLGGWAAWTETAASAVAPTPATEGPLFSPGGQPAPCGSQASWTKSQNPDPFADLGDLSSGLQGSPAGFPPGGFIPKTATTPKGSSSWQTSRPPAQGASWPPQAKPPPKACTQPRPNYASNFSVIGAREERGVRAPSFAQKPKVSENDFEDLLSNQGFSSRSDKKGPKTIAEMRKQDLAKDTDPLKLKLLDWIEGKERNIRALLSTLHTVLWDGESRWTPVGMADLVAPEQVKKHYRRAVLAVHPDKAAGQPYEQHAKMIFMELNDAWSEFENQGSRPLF

[12] = biological target: Rho-associated protein kinase 2 (Homo sapiens, UniProt O75116); experiment: Inhibition of ROCK2 (unknown origin)
[13] = biological target: TRAF2 and NCK-interacting protein kinase (Homo sapiens, UniProt Q9UKE5); experiment: Inhibition of TNIK (unknown origin)
[14] = biological target: Myosin light chain kinase 2, skeletal/cardiac muscle (Homo sapiens, UniProt Q9H1R3); experiment: Inhibition of MYLK2 (unknown origin)
[15] = biological target: Citron Rho-interacting kinase (Homo sapiens, UniProt O14578); experiment: Inhibition of CRIK (unknown origin)
Citron Rho-interacting kinase, sequence (O14578 whole entry): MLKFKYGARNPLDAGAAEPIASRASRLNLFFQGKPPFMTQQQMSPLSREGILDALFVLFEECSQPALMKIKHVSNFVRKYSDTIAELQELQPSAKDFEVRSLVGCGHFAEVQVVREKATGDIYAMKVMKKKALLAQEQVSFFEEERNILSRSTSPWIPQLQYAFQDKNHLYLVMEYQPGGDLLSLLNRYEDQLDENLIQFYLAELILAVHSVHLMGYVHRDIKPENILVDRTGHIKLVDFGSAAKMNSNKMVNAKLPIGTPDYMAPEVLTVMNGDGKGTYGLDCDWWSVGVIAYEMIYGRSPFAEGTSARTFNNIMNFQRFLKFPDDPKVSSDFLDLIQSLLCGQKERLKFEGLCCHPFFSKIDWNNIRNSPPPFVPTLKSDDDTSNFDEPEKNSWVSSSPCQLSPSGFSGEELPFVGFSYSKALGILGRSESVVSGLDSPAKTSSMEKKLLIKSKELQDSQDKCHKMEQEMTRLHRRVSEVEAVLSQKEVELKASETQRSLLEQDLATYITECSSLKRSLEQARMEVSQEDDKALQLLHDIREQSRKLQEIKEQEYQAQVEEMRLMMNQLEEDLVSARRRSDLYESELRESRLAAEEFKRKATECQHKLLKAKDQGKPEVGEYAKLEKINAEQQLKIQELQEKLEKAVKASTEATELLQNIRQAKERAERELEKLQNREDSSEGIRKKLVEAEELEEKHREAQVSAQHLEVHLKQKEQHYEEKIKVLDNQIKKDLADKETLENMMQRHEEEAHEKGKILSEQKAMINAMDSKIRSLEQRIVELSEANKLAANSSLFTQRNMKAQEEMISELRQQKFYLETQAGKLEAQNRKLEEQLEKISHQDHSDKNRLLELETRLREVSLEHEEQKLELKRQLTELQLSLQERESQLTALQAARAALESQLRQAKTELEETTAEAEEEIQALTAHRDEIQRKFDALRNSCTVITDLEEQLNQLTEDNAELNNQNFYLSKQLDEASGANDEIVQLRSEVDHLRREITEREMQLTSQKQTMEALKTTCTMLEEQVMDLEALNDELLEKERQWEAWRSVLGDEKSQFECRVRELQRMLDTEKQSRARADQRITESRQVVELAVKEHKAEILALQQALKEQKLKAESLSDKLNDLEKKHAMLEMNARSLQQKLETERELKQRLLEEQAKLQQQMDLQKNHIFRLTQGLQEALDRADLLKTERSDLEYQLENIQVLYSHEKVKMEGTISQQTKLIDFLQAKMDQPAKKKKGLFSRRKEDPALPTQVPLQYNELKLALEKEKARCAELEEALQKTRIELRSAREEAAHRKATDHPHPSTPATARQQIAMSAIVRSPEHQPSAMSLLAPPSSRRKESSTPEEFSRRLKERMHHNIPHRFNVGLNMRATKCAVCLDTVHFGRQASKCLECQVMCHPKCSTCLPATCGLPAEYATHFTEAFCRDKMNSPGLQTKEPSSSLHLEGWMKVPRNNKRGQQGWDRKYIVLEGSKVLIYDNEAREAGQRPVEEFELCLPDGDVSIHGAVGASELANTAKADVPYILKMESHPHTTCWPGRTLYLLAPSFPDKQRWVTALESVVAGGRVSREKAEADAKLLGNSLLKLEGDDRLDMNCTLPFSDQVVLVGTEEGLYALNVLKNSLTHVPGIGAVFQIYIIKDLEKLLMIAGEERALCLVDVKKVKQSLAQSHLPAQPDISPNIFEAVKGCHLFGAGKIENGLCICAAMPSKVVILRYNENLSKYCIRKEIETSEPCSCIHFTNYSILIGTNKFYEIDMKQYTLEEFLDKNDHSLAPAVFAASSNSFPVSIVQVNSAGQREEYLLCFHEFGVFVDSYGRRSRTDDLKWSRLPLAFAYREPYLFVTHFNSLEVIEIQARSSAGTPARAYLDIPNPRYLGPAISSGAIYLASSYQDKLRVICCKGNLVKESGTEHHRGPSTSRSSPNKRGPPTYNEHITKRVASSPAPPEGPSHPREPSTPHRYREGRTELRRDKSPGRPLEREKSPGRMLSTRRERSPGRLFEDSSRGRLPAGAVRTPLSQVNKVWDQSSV

[16] = biological target: MAP kinase-interacting serine/threonine-protein kinase 1 (Homo sapiens, UniProt Q9BUB5); experiment: Inhibition of MNK1 (unknown origin)
MAP kinase-interacting serine/threonine-protein kinase 1, sequence (Q9BUB5 whole entry): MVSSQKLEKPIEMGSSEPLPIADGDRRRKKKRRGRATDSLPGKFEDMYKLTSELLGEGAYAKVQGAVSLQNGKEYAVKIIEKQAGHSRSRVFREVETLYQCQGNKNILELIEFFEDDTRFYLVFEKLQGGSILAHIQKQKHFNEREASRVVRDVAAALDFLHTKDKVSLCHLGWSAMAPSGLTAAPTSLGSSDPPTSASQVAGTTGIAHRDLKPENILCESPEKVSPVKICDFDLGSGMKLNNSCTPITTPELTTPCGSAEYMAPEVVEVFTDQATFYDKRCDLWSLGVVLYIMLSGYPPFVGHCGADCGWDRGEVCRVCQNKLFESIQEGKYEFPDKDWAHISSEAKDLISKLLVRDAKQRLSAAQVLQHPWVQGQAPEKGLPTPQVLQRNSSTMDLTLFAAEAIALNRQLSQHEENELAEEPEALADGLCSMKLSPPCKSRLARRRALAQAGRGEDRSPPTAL

[17] = Ratio of drug concentration in spinal cord to plasma in STZ-induced diabetic peripheral neuropathic mechanical allodynia in overnight fasted Sprague-Dawley rat at 1 mg/kg, po measured at 5.5 hrs post dose; type: ADME, organism-based
[18] = Drug concentration in CCI induced thermal hyperalgesia in Sprague-Dawley rat spinal cord at 1 mg/kg, po measured after 5.5 hrs; type: ADME, organism-based; conditions: read-out: Ct
[19] = Drug concentration in STZ-induced diabetic peripheral neuropathic mechanical allodynia in overnight fasted Sprague-Dawley rat spinal cord at 1 mg/kg, po measured after 5.5 hrs; type: ADME, organism-based; conditions: read-out: Ct
[20] = Brain concentration in CCI induced thermal hyperalgesia in Sprague-Dawley rat at 1 mg/kg, po measured at 5.5 hrs post dose; type: ADME, organism-based; conditions: read-out: Ct
[21] = tested on: Rattus norvegicus; experiment: Analgesic activity in CCI induced thermal hyperalgesia in Sprague-Dawley rat assessed as reduction in thermal hyperalgesia by measuring paw withdrawal latency at 1 mg/kg, po measured after 5 hrs by Hargreaves test relative to control; type: functional; parameters: scale not given: the % may be the effect or the level left
[22] = Brain concentration in STZ-induced diabetic peripheral neuropathic mechanical allodynia in overnight fasted Sprague-Dawley rat at 1 mg/kg, po measured at 5.5 hrs post dose; type: ADME, organism-based; conditions: read-out: Ct
[23] = tested on: Rattus norvegicus; experiment: Analgesic activity in STZ-induced diabetic peripheral neuropathic mechanical allodynia in overnight fasted Sprague-Dawley rat assessed as reduction in pain response by measuring paw withdrawal latency at 1 mg/kg, po measured after 5 hrs by Hargreaves test relative to control; type: functional; parameters: scale not given: the % may be the effect or the level left
[24] = Ratio of drug concentration in brain to plasma in CCI induced thermal hyperalgesia in Sprague-Dawley rat at 1 mg/kg, po measured at 5.5 hrs post dose; type: ADME, organism-based
[25] = Plasma concentration in STZ-induced diabetic peripheral neuropathic mechanical allodynia in overnight fasted Sprague-Dawley rat at 1 mg/kg, po measured at 5.5 hrs post dose; type: ADME, organism-based
[26] = Plasma concentration in CCI induced thermal hyperalgesia in Sprague-Dawley rat at 1 mg/kg, po measured at 5.5 hrs post dose; type: ADME, organism-based
[27] = Ratio of drug concentration in brain to plasma in STZ-induced diabetic peripheral neuropathic mechanical allodynia in overnight fasted Sprague-Dawley rat at 1 mg/kg, po measured at 5.5 hrs post dose; type: ADME, organism-based
[28] = Ratio of drug concentration in spinal cord to plasma in CCI induced thermal hyperalgesia in Sprague-Dawley rat at 1 mg/kg, po measured at 5.5 hrs post dose; type: ADME, organism-based
[29] = biological target: BMP-2-inducible protein kinase (Homo sapiens, UniProt Q9NSY1); experiment: Inhibition of BIKE (unknown origin)
[30] = Plasma concentration in STZ-induced diabetic peripheral neuropathic mechanical allodynia in overnight fasted Sprague-Dawley rat at 1 mg/kg, po measured at 5.75 hrs post dose; type: ADME, organism-based
[31] = Ratio of drug concentration in spinal cord to plasma in STZ-induced diabetic peripheral neuropathic mechanical allodynia in overnight fasted Sprague-Dawley rat at 1 mg/kg, po measured at 5.75 hrs post dose; type: ADME, organism-based
[32] = Drug concentration in STZ-induced diabetic peripheral neuropathic mechanical allodynia in overnight fasted Sprague-Dawley rat spinal cord at 1 mg/kg, po measured at 5.75 hrs post dose; type: ADME, organism-based; conditions: read-out: Ct

Row | SMILES | efflux ratio [1] | remaining at 10 min, 0.5 µM [2] [%] | remaining at 10 min, 0.5 µM [3] [%] | remaining at 10 min, 0.5 µM [4] [%] | IC50 [5] [nM] | Ki [6] [nM] | IC50 [7] [nM] | IC50 [9] [nM] | Activity [10] [%] | also measured
1 | COc1cc(-c2ccnc(NC(C)=O)c2)ccc1OC[C@@H](N)CC(C)C | 4.2 | 96 | 92 | 58 | 6900 | 0.96 | 3.8 |  |  | 
2 | CC(=O)Nc1cc(-c2ccc(OC[C@@H](N)CC(C)C)c(C#N)c2)ccn1 | 6.3 | 87 | 83 | 84 | 2600 | 0.04 | 0.5 |  |  | Kp at 2 h [8]: 0.45
3 | CC(=O)Nc1cc(-c2ccc(OC[C@@](C)(N)CC(C)C)c(C#N)c2)ccn1 | 2.5 | 64 | 78 | 71 | > 20000 | 0.09 | 0.6 | 0.6 |  | 
4 | COC(=O)Nc1cc(-c2cc(C)c(OC[C@@](C)(N)CC(C)C)cn2)ccn1 |  | 100 | 100 | 99 | 13000 | 1.4 | 12 | 1.7 | 38 | IC50 [11]: 1800 nM; IC50 [12]: 780 nM; IC50 [13]: 690 nM; IC50 [14]: 600 nM; IC50 [15]: 60 nM; IC50 [16]: 1300 nM
5 | CC(=O)Nc1cc(-c2ccc(OC[C@@H](N)CC(C)C)c(F)c2)ccn1 |  | 90 | 80 | 79 | 8900 | 0.52 | 1.6 | 2.6 |  | Kp at 5.5 h [17]: 0.8; concentration at 5.5 h [18]: 270 nM; concentration at 5.5 h [19]: 150 nM; concentration at 5.5 h [20]: 320 nM; Kp at 2 h [8]: 1.5; Activity [21]: 56%; concentration at 5.5 h [22]: 190 nM; Activity [23]: 65%; Kp at 5.5 h [24]: 1.2; concentration at 5.5 h [25]: 190 nM; concentration at 5.5 h [26]: 270 nM; Kp at 5.5 h [27]: 1; Kp at 5.5 h [28]: 1
6 | Cc1cc(-c2cc(Cl)c(OC[C@@](C)(N)CC(C)C)cn2)ccn1 |  | 86 | 73 | 71 | > 20000 | 0.7 | 1.9 |  | 50 | IC50 [29]: 1500 nM; IC50 [15]: 1300 nM; IC50 [16]: 1900 nM
7 | COC(=O)Nc1cc(-c2cnc(OC[C@@](C)(N)CC(C)C)c(OC)c2)ccn1 (racemic) |  | 86 | 79 | 59 | > 20000 | 2.5 |  | 3.8 | 91 | 
8 | COC(=O)Nc1cc(-c2ccc(OC[C@@](C)(N)CC(C)C)c(C)c2)ccn1 (racemic) |  | 98 | 96 | 75 | > 20000 | 0.08 | 0.8 | 0.8 |  | 
9 | CC(C)C[C@](C)(N)COc1ccc(-c2ccnc(C(F)F)c2)nc1C(F)F [PILAVAPADIN] |  |  |  |  |  |  |  |  |  | concentration at 5.75 h [30]: 84 nM; Kp at 5.75 h [31]: 2.9; concentration at 5.75 h [32]: 245 nM
